# Legend:
# [1] = test system: patient with Male Erectile Disorder; test: Treatment of Male Erectile Disorder (Examples C, K); format: in vivo, human; settings: 3 mg/dose 0.5 hr before sexual activity; examined after one month; patient report
# Text: A 75 kg, patient has been married for 20 years. They present complaining that for the past six months they have had difficulty maintaining an erection until completion of sexual intercourse. They develop an adequate erection at the beginning of sexual activity but detumescence occurs when they attempt penetration. Their spouse is their only current sexual partner. They report that their spouse is patient and understanding of their problem but that they are embarrassed, feels that they are a failure, and is growing progressively more angry and sad about their inability to maintain an erection. They masturbate approximately twice each month. During masturbation, they are usually able to maintain an erection until they ejaculate. […] The only remarkable findings were a supine diastolic blood pressure 94 mm mercury and a total plasma cholesterol level of 230 mg/dl. They were instructed to follow the American Heart Association dietary recommendations and to reduce their body weight by 5 kg. They currently take no prescription drugs. […] The patient is diagnosed as having Male Erectile Disorder that is acquired and situational. The etiology is most likely due to psychological factors, although combined factors, e.g., mild hypertension or atherosclerosis, may contribute (Diagnostic and Statistical Manual of Mental Disorders, Fourth Edition, 1994). (5R)-(methylamino)-5,6-dihydro-4H-imidazo[4,5,1-ij]quinolin-2(1H)-one (Z)-2-butenedioate (1:1) is prescribed at 3 mg/dose to be taken 0.5 hr before the patient intends to engage in sexual activity. The patient is instructed that they may use the drug on a daily basis, if this is the intended frequency of sexual activity. The patient is examined after one month. They report that they use the drug prior to intercourse. […] The patient is instructed to continue using the drug.
# [2] = test system: male and female Giant Pandas; test: Mating of animals of commercial value (Examples F, N); format: in vivo, Giant Panda; settings: 0.05 mg of free base equivalents per kilogram of body weight in diet, one occasion; for induction of mating (treatment effect): one hour after ingesting
# Text: An adult male Giant Panda on temporary loan from a foreign zoo is desired to have breed to an adult female Giant Panda which is normally resident at the zoo. Because of the commercial value of a potential off-spring it is desirable that the animals mate during the time the adult male is on loan. […] As an alternative to anesthetizing the animals for a facilitated transfer of semen between the animals, the male and female Giant Pandas have (5R)-(methylamino)-5,6-dihydro-4H-imidazo[4,5,1-ij]quinolin-2(1H)-one (Z)-2-butenedioate (II) added to their diet on one occasion. The concentration of drug in the diet is calculated to deliver 0.05 mg of free base equivalents of (5R)-(methylamino)-5,6-dihydro-4H-imidazo[4,5,1-ij]quinolin-2(1H)-one (Z)-2-butenedioate (1:1) per kilogram of body weight.
# [3] = test system: patient with Male Orgasmic Disorder; test: Treatment of Male Orgasmic Disorder (Examples E, M); format: in vivo, human; settings: 3 mg/dose 0.5-1 hr before sexual activity; examined after one month; patient report
# Text: A 80 kg, person has been married for 15 years. They present complaining that they have begun to have difficulty achieving an orgasm during vaginal intercourse with their spouse. On most occasions they are unable to ejaculate during sexual intercourse. Infrequently, they are able to ejaculate during sexual, but only after very prolonged vaginal intercourse. […] Their further reports that their spouse finds the prolonged intercourse that they require to ejaculate uncomfortable and has begun avoiding sexual relations. They report that they ejaculate normally when they masturbate. […] They currently take no prescription drugs. […] The patient is diagnosed as having Male Orgasmic Disorder that is acquired and situational due to psychological factors (Diagnostic and Statistical Manual of Mental Disorders, Fourth Edition, 1994). (5R)-(methylamino) -5,6-dihydro-4H-imidazo[4,5,1-ij]quinolin-2(1H)-one (Z)-2-butenedioate (1:1) is prescribed at 3 mg/dose to be taken 0.5-1 hr before the patient intends to engage in sexual activity. The patient is instructed that they may use the drug on a daily basis, if this is the intended frequency of sexual activity. The patient is examined after one month. […] The patient is instructed to continue using the drug.
# [4] = test system: patient with idiopathic epilepsy and hypogonadism, secondary to chronic carbamazepine treatment; test: Treatment of reduced sexual function in a person with idiopathic epilepsy (Examples G, O); format: in vivo, human; settings: 3 mg/dose 0.5 hr before sexual activity, 2-3 times per week; carbamazepine 500 mg/day; examined after one month
# Protocol: A 75 kg patient has idiopathic epilepsy. They first presented with primary generalized seizures and was diagnosed with idiopathic epilepsy. They have been treated with carbamazepine. Currently they receive 500 mg/day of the drug. They have had two tonic-clonic seizures during the preceding year. The patient complains of diminished sexual interest in their spouse of 8 years. On those occasions when they attempt sexual intercourse, they are able to maintain an erection sufficient for intercourse one-third of the time. […] They report that they rarely have sexual fantasies and rarely masturbates. […] They currently take no prescription drugs other than carbamazepine. […] Plasma testosterone and sex hormone binding globulin assays are performed. The plasma testosterone level is 25 nM, which is considered normal. The plasma sex hormone binding globulin level is 55 nM, which is considered elevated compared to the normal range. The patient is diagnosed with hypogonadism, secondary to chronic carbamazepine treatment (Epilepsia 36: 366-370, 1995). (5R)-(methylamino)-5,6-dihydro-4H-imidazo[4,5,1-ij]quinolin-2(1H)-one (Z)-2-butenedioate (1:1) is prescribed at 3 mg/dose to be taken 0.5 hr before the patient intends to engage in sexual activity. The patient is instructed that they may use the drug on a daily basis, if this is the intended frequency of sexual activity. The patient is examined after one month. They report that they take the drug 2-3 times per week. […] The patient is instructed to continue with the treatment.
Structure (SMILES),melting point [°C],treatment effect (quality of sexual relationship) [1],induction of mating (treatment effect) [2],treatment effect (quality of sexual relationship) [3],treatment effect (sexual relationship) [4],ejaculation [1],maintenance of erection [1],pregnancy and birth from the mating [2],ejaculation during vaginal intercourse [3],sexual interest and initiation of sexual activity [4]
"CN[C@@H]1Cc2cccc3[nH]c(=S)n(c23)C1 [(5R)-5-(Methylamino)-5,6-dihydro-4H-imidazo[4,5,1-ij]quinoline-2(1H)-thione]",210 to 213,same positive treatment effect,same positive treatment effect,same positive treatment effect,same positive treatment effect,,,,,
"CN[C@@H]1Cc2cccc3[nH]c(=O)n(c23)C1.O=C(O)/C=C\C(=O)O [(5R)-(methylamino)-5,6-dihydro-4H-imidazo[4,5,1-ij]quinolin-2(1H)-one (Z)-2-butenedioate (1:1)]",,markedly improved,the animals engage in sexual intercourse,markedly improved,enjoys a normal sexual relationship,usually experiences intra-vaginal ejaculation,maintains an erection for a satisfactory period after vaginal penetration in almost every attempt at intercourse,A pregnancy and subsequent birth of an off-spring results,ejaculates during vaginal intercourse on all occasions,feels more interest in sex and usually initiates sexual activity with their spouse
